{"source": "patent US20250340516A1", "about": "“Isoquinolinones as Modulators of POLRMT” (Pretzel Therapeutics, Inc., priority 2024, published 2025)", "data": [{"target": "POLRMT (Homo sapiens (Human), UniProt O00411)", "sequence (O00411 42-1230)": "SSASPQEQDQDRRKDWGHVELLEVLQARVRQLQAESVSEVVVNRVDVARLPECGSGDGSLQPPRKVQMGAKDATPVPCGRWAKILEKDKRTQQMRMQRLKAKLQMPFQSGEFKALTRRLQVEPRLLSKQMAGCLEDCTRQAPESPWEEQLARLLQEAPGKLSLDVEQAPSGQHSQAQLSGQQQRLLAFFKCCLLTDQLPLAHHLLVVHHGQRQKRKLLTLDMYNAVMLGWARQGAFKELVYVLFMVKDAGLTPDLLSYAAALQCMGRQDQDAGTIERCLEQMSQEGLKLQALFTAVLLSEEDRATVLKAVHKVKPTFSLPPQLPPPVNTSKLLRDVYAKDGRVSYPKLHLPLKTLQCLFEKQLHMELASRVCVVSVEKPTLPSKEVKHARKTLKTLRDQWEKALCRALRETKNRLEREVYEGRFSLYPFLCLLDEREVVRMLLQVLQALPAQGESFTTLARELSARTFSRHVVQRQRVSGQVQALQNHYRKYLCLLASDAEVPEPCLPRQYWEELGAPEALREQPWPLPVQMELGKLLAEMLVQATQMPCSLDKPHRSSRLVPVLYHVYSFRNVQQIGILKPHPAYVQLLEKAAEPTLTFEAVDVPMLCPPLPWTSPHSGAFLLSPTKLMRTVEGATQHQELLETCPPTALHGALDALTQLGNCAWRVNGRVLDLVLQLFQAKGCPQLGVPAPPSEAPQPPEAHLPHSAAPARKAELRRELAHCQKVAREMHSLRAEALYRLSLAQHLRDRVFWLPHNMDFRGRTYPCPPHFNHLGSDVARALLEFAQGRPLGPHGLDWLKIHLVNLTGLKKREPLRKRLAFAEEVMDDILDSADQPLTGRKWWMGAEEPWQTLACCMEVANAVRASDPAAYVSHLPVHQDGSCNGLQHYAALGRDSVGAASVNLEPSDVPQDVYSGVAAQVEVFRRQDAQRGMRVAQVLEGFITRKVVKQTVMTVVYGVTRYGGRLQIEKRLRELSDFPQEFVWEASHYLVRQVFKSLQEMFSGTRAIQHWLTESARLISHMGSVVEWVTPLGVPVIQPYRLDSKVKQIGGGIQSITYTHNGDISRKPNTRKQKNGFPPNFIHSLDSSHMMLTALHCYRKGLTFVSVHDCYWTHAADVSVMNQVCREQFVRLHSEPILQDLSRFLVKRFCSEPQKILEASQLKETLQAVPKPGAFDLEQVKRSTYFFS", "assay": "homogeneous TR-FRET assay of POLRMT inhibition (mitochondrial transcription, 407 bp RNA product)", "assay_type": "biochemical", "conditions": "7.5 nM POLRMT, 15 nM TFB2M, 30 nM TFAM, 0.5 nM DNA template, 500 μM NTPs, 37° C., 60 minutes, * = aggregation of data sets, read-out: IC50 values for isoquinolinone compounds", "procedure": "The inhibitory activity of the compounds of the present invention against POLRMT were determined by assays based on Bergbrede, T., et al., “An adaptable high-throughput technology enabling the identification of specific transcription modulators,” SLAC Discov., 22, 378-386 (2017).\nThe ability of some compounds of the present invention to inhibit POLRMT were determined in a homogeneous TR-FRET Assay using high-throughput screening in a 384-well plate format. This method is used to monitor the activity of mitochondrial transcription through measurement of its product, a 407 bp long RNA transcript. Detection of the product is facilitated by hybridization of two DNA-oligonucleotide probes to specific and adjacent sequences within the RNA product sequence. Upon annealing of the probes, two fluorophores are coupled directly to an acceptor nucleotide probe (ATTO647, 5′), or introduced via a coupled streptavidin with a biotinylated donor nucleotide probe (Europium cryptate) that is brought into sufficient proximity to serve as a fluorescence-donor-acceptor pair. Thus, a FRET signal at 665 nm is generated upon excitation at 340 nm.\nProteins used as transcription factors (POLRMT: NP_005026.3, TFAM: NP_003192.1, TFB2M: NP_071761.1) are diluted from their stocks to working concentrations of 1 μM, 20 μM and 4 μM respectively, in a dilution buffer containing 20 mM Tris-HCl (pH 8.0), 200 mM NaCl, 10% (v/v) glycerol, 1 mM Dithiothreitol (DTT), 0.5 mM EDTA.\nDNA template is a pUC18 plasmid with the mitochondrial light strand promotor sequence (1-477) cloned between HindIII and BamHI sites. The DNA template is restriction linearized proximal to the promotor 3′-end (pUC-LSP).\nThe reaction mixture (10 uL) containing 7.5 nM POLRMT, 15 nM of TFB2M, 30 nM of TFAM, 0.5 nM of DNA template and 500 μM nucleotide triphosphate mix (NTPs) in a reaction buffer (containing 10 mM Tris-HCl (pH 7.5), 10 mM MgCl2, 40 mM NaCl, 10 mM DTT, 0.005% (w/v) Tween-20, 160 units/ml Rnase inhibitor and 0.1 mg/mL BSA) are dispensed to compounds in microplates, using a Thermo Multidrop® dispenser, and incubated at 37° C. in a VWR INCU-Line incubator for 60 minutes after mixing. No nucleotide triphosphate mix is added to negative control samples. Microplates with compounds to be tested in the assay are prepared from 10 mM compound stocks in 100% DMSO, equal amounts of DMSO without any compound are added to positive control and negative control samples.\nDuring the incubation, a mix of the detection reagents is prepared in a buffer such that the enzymatic reaction is terminated due to chelating of Mg-ions and increased ionic strength, containing 50 mM Tris-HCl (pH 7.5), 700 mM NaCl, 20 mM EDTA, and 0.01% (w/v) Tween-20. Europium-streptavidin is pre-incubated with a 200-fold molar excess of a random sequence oligonucleotide to block unspecific binding of oligo, for two hours at ambient temperature in the dark. Afterwards, the blocked Europium-streptavidin is kept on ice until use.\nAt the end of the enzymatic reaction time, 5 μL detection oligo mix in the detection buffer is added, and assay plates are mixed and kept at ambient temperature for one hour, protected from light. The concentration of the Acceptor nucleotide oligo (e.g., ATTO647N-5′-[…]-3′ (SEQ ID NO: 1)) and Donor nucleotide oligo (e.g., bio-5′-AACACATCTCT(-bio)GCCAAACCCCA-bio-3′ (SEQ ID NO: 2)) in each assay well is 1 nM, and 3 nM, respectively.\nAfter incubation with oligo mix, 5 μL of pre-blocked Europium-streptavidin reagent is dispensed to each assay well, assay plates are again mixed and kept at ambient temperature for one hour, protected from light.\nThe generated signal is measured with BMG Pherastar microtiter plate reader with a TRF light unit, using excitation at 340 nm, an integration time of 200 μs, and a delay time of 100 μs, before detection at 620 nm and 665 nm. The ratio of donor- and acceptor-fluorescence is used as a measure of the generated transcript product (i.e. enzymatic activity).", "units": {"IC50": "nM"}, "values": [{"molecule": "Cc1ccccc1-c1c[nH]c(=O)c2cc(N(C)[C@@H](C)C(=O)N3CCC[C@H](C(=O)O)C3)ccc12", "note": "(single isomer, unassigned) [Example 8]", "IC50": 93000}, {"molecule": "Cc1ccccc1-c1c[nH]c(=O)c2cc(O[C@H](C)C(=O)N3CCC(NC(N)=O)CC3)ccc12", "note": "[Example 30, (R)-1-(1-(2-((1-oxo-4-(o-tolyl)-1,2-dihydroisoquinolin-7-yl)oxy)propanoyl)piperidin-4-yl)urea]", "IC50": 70}, {"molecule": "Cc1ccccc1-c1c[nH]c(=O)c2cc(O[C@H](C)C(=O)N3CCC(C)(C(=O)O)CC3)ccc12", "note": "[Example 15, (R)-4-methyl-1-(2-((1-oxo-4-(o-tolyl)-1,2-dihydroisoquinolin-7-yl)oxy)propanoyl)piperidine-4-carboxylic acid]", "IC50": 60}, {"molecule": "Cc1cc(F)ccc1-c1c[nH]c(=O)c2cc(O[C@H](C)C(=O)N3CCN(C(N)=O)CC3)ccc12", "note": "[Example 56, (R)-4-(2-((4-(4-fluoro-2-methylphenyl)-1-oxo-1,2-dihydroisoquinolin-7-yl)oxy)propanoyl)piperazine-1-carboxamide]", "IC50": 30}, {"molecule": "Cc1ccccc1-c1c[nH]c(=O)c2cc(O[C@H](C)C(=O)N3CCCC(CC(=O)O)C3)ccc12", "note": "(single isomer, unassigned) [Example 13]", "IC50": 70}, {"molecule": "Cc1ccccc1-c1c[nH]c(=O)c2cc(O[C@H](C)C(=O)N3CCCCC(N(C)C)C3)ccc12", "note": "(single isomer, unassigned) [Example 75]", "IC50": 3000}, {"molecule": "Cc1cccc(C)c1-c1c[nH]c(=O)c2cc(O[C@H](C)C(=O)N3CCC(C)(C(=O)O)CC3)ccc12", "note": "[Example 20, (R)-1-(2-((4-(2,6-dimethylphenyl)-1-oxo-1,2-dihydroisoquinolin-7-yl)oxy)propanoyl)-4-methylpiperidine-4-carboxylic acid]", "IC50": 100}, {"molecule": "Cc1c(F)cccc1-c1c[nH]c(=O)c2cc(N(C)CC(=O)NCCO)ccc12", "note": "[Example 70, 2-((4-(3-fluoro-2-methylphenyl)-1-oxo-1,2-dihydroisoquinolin-7-yl)(methyl)amino)-N-(2-hydroxyethyl)acetamide]", "IC50": 1000}, {"molecule": "Cc1ccccc1-c1c[nH]c(=O)c2cc(O[C@H](C)C(=O)N3CC(C(=O)O)CC(F)(F)C3)ccc12", "note": "(single isomer, unassigned) [Example 1]", "IC50": 60}, {"molecule": "Cc1ccccc1-c1c[nH]c(=O)c2cc(O[C@H](C)C(=O)N3CCC(N(C)C)CC3)ccc12", "note": "[Example 31, (R)-7-((1-(4-(dimethylamino)piperidin-1-yl)-1-oxopropan-2-yl)oxy)-4-(o-tolyl)isoquinolin-1(2H)-one]", "IC50": 300}, {"molecule": "CCCC1(C(=O)O)CCCN(C(=O)[C@@H](C)Oc2ccc3c(-c4ccccc4C)c[nH]c(=O)c3c2)C1", "note": "(single isomer, unassigned) [Example 67]", "IC50": 40}, {"molecule": "CC(=O)NCCN(C)C(=O)[C@@H](C)Oc1ccc2c(-c3ccccc3C)c[nH]c(=O)c2c1", "note": "[Example 19, (R)-N-(2-acetamidoethyl)-N-methyl-2-((1-oxo-4-(o-tolyl)-1,2-dihydroisoquinolin-7-yl)oxy)propanamide]", "IC50": 2000}, {"molecule": "Cc1ccccc1-c1c[nH]c(=O)c2cc(O[C@H](C)C(=O)N3CC[C@@H](N(C)C)C3)ccc12", "note": "[Example 64, 7-(((R)-1-((R)-3-(dimethylamino)pyrrolidin-1-yl)-1-oxopropan-2-yl)oxy)-4-(0-tolyl)isoquinolin-1(2H)-one]", "IC50": 200}, {"molecule": "Cc1ccccc1-c1c[nH]c(=O)c2cc(O[C@H](C)C(=O)NC3(C(N)=O)CC3)ccc12", "note": "[Example 62, (R)-1-(2-((1-oxo-4-(o-tolyl)-1,2-dihydroisoquinolin-7-yl)oxy)propanamido)cyclopropane-1-carboxamide]", "IC50": 100}, {"molecule": "Cc1ccccc1-c1c[nH]c(=O)c2cc(O[C@H](C)C(=O)N[C@H](C)C(N)=O)ccc12", "note": "[Example 21, (R)-N-((R)-1-amino-1-oxopropan-2-yl)-2-((1-oxo-4-(o-tolyl)-1,2-dihydroisoquinolin-7-yl)oxy)propanamide]", "IC50": 200}, {"molecule": "C[C@@H](C(=O)N1CCC[C@H](C(=O)O)C1)N(C)c1ccc2c(-c3ccc(F)cc3Cl)c[nH]c(=O)c2c1", "note": "(single isomer, unassigned) [Example 5]", "IC50": 8000}, {"molecule": "Cc1ccccc1-c1c[nH]c(=O)c2cc(O[C@H](C)C(=O)N3CCC[C@H](CC(N)=O)C3)ccc12", "note": "[Example 38, 2-((R)-1-((R)-2-((1-oxo-4-(o-tolyl)-1,2-dihydroisoquinolin-7-yl)oxy)propanoyl)piperidin-3-yl)acetamide]", "IC50": 9}, {"molecule": "C[C@@H](Oc1ccc2c(-c3ccc(F)cc3Cl)c[nH]c(=O)c2c1)C(=O)N1CCCC(C(C)(C)C(=O)O)C1", "note": "(single isomer, unassigned) [Example 51]", "IC50": 300}, {"molecule": "Cc1ccccc1-c1c[nH]c(=O)c2cc(O[C@H](C)C(=O)N3CCCC(C(C)(C)C(N)=O)C3)ccc12", "note": "(single isomer, unassigned) [Example 46]", "IC50": 40}, {"molecule": "CCCC1(C(=O)O)CCCN(C(=O)[C@@H](C)Oc2ccc3c(-c4ccccc4C)c[nH]c(=O)c3c2)C1", "note": "(single isomer, unassigned) [Example 66]", "IC50": 100}, {"molecule": "Cc1ccccc1-c1c[nH]c(=O)c2cc(O[C@@H](C)C(=O)N(C)CC(=O)O)ccc12", "note": "[Example 26, (S)-N-methyl-N-(2-((1-oxo-4-(o-tolyl)-1,2-dihydroisoquinolin-7-yl)oxy)propanoyl)glycine]", "IC50": 43000}, {"molecule": "CCNC1CCN(C(=O)[C@@H](C)Oc2ccc3c(-c4ccccc4C)c[nH]c(=O)c3c2)CC1", "note": "[Example 77, (R)-7-((1-(4-(ethylamino)piperidin-1-yl)-1-oxopropan-2-yl)oxy)-4-(o-tolyl)isoquinolin-1(2H)-one]", "IC50": 1000}, {"molecule": "Cc1ccccc1-c1c[nH]c(=O)c2cc(O[C@H](C)C(=O)N3CCC[C@@H](CC(N)=O)C3)ccc12", "note": "[Example 39, 2-((S)-1-((R)-2-((1-oxo-4-(o-tolyl)-1,2-dihydroisoquinolin-7-yl)oxy)propanoyl)piperidin-3-yl)acetamide]", "IC50": 40}, {"molecule": "Cc1c(F)cccc1-c1c[nH]c(=O)c2cc(O[C@H](C)C(=O)N3CCN(C(N)=O)CC3)ccc12", "note": "[Example 57, (R)-4-(2-((4-(3-fluoro-2-methylphenyl)-1-oxo-1,2-dihydroisoquinolin-7-yl)oxy)propanoyl)piperazine-1-carboxamide]", "IC50": 20}, {"molecule": "Cc1cccc(CO)c1-c1c[nH]c(=O)c2cc(OCC(F)(F)F)ccc12", "note": "[Example 71, 4-(2-(hydroxymethyl)-6-methylphenyl)-7-(2,2,2-trifluoroethoxy)isoquinolin-1(2H)-one]", "IC50": 80}, {"molecule": "Cc1ccccc1-c1c[nH]c(=O)c2cc(O[C@H](C)C(=O)N3CCCC(C(C)(C)C(N)=O)C3)ccc12", "note": "(single isomer, unassigned) [Example 45]", "IC50": 30}, {"molecule": "CCC1(C(=O)O)CCCN(C(=O)[C@@H](C)Oc2ccc3c(-c4ccccc4C)c[nH]c(=O)c3c2)C1", "note": "(single isomer, unassigned) [Example 53]", "IC50": 40}, {"molecule": "Cc1cccc(C#N)c1-c1c[nH]c(=O)c2cc(OCC#N)ccc12", "note": "[Example 48, 2-(7-(cyanomethoxy)-1-oxo-1,2-dihydroisoquinolin-4-yl)-3-methylbenzonitrile]", "IC50": 500}, {"molecule": "Cc1ccccc1-c1c[nH]c(=O)c2cc(O[C@H](C)C(=O)N3CCC[C@@H](N(C)C)C3)ccc12", "note": "[Example 33, 7-(((R)-1-((R)-3-(dimethylamino)piperidin-1-yl)-1-oxopropan-2-yl)oxy)-4-(o-tolyl)isoquinolin-1(2H)-one]", "IC50": 300}]}]}
